Test results taken from the supplement of paper PMC12463676, “Small-molecule dissolution of stress granules by redox modulation benefits ALS models” (Nature Chemical Biology, 2025).

Columns and labels:
lipoamide = compound: NC(=O)CCCCC1CCSS1 [lipoamide]; assay: thermal stability z-score vs DMSO; higher = more thermally stabilized by treatment; settings: HeLa, lipoamide concentration 100 µM
Description: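 Cellular thermal proteome profiling in HeLa cells. Cells were treated with 100 µM lipoamide for 1 h, with or without 1 mM arsenate for a further 1 h, then heated to ten temperatures (37-66.3 °C), and soluble protein was quantified by TMT mass spectrometry relative to 0.1% DMSO controls. The thermal stability score (sum of log2 fold changes minus the abundance score) was transformed to a z-score; mean of n = 3 experiments.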

potassium arsenate = compound: O=[As]([O-])(O)O.[K+] [potassium arsenate]; assay: as above; settings: HeLa; arsenate concentration 1 mM
Description: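 Cellular thermal proteome profiling in HeLa cells treated with 1 mM arsenate for 1 h (DMSO pretreatment), heated to ten temperatures (37-66.3 °C). Soluble protein was quantified by TMT mass spectrometry relative to DMSO controls; the thermal stability score was transformed to a z-score; mean of n = 3 experiments.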

[1] = arsenate co-treatment: 1 mM arsenate 1 h
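Further: each temperature applied for 3 min, abundance score taken as mean log2 fold change at the two lowest temperatures, z-score obtained by mean subtraction and division by SD.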

Chain of UniProt Q8WUA2 (Q8WUA2 whole entry): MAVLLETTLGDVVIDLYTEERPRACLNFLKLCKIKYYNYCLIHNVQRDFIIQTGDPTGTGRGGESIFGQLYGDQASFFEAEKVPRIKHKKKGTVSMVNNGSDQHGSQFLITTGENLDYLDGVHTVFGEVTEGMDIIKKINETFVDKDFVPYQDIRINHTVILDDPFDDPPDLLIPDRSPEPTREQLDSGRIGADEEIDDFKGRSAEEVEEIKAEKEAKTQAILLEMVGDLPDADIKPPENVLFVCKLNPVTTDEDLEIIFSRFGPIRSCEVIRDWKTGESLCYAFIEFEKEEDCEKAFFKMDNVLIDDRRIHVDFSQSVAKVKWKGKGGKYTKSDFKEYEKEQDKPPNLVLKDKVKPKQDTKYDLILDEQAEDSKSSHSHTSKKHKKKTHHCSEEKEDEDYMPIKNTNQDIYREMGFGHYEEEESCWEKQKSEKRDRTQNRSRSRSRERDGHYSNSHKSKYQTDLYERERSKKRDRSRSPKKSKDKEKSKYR
Chain of UniProt Q8N1B4 (Q8N1B4 whole entry): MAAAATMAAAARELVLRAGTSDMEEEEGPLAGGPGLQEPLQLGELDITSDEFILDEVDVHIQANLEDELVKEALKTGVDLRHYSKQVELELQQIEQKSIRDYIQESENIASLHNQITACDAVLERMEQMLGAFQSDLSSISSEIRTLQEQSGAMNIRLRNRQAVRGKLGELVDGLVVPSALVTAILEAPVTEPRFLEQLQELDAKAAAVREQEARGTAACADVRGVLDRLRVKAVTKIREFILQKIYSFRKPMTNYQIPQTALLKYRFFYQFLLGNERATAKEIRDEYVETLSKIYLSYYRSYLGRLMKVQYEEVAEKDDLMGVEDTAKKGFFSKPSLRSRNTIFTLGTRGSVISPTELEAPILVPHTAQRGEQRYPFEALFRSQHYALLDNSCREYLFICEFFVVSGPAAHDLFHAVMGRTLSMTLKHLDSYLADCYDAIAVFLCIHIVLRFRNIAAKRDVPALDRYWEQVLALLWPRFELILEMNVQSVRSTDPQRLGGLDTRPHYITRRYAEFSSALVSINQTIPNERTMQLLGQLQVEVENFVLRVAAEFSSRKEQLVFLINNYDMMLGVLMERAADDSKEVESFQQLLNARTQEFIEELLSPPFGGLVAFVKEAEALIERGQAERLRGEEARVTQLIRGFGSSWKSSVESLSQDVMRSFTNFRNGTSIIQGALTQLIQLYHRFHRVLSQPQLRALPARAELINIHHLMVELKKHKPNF
Chain of UniProt O75688 (O75688 whole entry): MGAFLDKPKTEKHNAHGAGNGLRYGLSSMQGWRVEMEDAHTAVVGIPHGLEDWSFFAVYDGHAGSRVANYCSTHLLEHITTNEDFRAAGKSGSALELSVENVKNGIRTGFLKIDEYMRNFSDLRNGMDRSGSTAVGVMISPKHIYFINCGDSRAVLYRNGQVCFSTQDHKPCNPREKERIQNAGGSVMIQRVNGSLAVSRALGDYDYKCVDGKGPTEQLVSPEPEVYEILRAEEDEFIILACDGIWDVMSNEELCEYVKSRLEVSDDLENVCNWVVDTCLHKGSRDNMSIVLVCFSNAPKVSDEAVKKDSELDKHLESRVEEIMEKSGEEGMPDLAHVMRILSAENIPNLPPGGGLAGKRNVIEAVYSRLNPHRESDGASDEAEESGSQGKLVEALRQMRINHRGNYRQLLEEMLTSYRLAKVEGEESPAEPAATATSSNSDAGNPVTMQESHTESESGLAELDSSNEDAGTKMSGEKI
Chain of UniProt P48444 (P48444 whole entry): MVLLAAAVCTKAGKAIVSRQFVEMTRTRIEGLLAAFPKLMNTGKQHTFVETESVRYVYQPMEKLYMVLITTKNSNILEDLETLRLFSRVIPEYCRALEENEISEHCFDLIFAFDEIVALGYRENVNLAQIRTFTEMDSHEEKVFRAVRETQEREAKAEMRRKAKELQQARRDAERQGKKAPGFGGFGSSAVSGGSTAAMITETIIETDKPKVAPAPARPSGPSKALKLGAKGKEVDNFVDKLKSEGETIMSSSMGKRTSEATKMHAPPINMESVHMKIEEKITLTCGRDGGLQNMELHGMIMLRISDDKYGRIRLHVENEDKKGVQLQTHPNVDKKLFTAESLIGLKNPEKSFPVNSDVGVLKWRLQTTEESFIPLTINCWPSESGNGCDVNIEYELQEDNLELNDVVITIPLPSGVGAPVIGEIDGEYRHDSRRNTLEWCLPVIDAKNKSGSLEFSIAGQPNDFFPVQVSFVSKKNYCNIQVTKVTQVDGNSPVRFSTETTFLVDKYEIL
Chain of UniProt Q9UGR2 (Q9UGR2 whole entry): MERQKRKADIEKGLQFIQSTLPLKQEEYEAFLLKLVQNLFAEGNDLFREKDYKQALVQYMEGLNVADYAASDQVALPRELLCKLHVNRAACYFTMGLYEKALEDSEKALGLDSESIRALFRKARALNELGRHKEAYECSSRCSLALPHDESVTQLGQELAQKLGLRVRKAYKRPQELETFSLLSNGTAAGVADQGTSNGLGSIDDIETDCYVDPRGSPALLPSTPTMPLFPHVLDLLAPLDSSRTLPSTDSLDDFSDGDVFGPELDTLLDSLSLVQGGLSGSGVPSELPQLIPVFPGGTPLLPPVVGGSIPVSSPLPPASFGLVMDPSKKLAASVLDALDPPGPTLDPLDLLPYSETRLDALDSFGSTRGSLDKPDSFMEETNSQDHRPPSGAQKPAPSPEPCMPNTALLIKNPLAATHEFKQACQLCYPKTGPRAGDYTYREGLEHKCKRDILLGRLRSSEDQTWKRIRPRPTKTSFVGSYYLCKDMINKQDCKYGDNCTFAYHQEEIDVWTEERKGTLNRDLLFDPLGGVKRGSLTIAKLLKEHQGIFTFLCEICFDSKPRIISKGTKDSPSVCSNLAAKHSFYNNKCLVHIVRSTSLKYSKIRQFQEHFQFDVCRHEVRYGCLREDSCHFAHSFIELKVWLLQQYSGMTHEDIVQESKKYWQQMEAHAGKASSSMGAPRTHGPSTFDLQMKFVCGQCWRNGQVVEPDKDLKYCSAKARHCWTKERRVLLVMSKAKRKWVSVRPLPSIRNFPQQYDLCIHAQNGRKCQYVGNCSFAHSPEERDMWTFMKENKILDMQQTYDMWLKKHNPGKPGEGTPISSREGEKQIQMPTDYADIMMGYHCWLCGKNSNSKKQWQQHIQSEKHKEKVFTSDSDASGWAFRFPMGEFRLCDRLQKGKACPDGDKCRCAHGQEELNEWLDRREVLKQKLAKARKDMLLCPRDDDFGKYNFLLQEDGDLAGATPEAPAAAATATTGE
Chain of UniProt Q9UBI1 (Q9UBI1 whole entry): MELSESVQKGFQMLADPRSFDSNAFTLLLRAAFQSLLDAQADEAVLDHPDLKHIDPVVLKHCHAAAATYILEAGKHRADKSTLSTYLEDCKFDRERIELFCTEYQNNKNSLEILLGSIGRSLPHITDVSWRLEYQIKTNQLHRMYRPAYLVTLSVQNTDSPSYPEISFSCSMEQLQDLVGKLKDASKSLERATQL
Chain of UniProt P11233 (P11233 whole entry): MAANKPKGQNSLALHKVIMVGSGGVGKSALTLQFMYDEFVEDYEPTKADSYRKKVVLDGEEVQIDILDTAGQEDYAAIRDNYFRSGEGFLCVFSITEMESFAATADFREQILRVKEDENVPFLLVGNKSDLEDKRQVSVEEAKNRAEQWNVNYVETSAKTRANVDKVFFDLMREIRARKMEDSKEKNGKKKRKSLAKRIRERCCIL
Chain of UniProt Q9NX47 (Q9NX47 whole entry): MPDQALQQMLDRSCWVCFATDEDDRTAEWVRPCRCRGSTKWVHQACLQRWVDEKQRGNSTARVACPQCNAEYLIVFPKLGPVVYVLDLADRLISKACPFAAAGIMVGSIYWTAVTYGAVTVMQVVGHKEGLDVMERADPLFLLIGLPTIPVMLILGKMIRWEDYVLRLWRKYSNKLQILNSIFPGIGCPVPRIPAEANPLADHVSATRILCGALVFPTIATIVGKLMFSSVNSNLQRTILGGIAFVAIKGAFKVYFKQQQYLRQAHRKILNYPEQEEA
Chain of UniProt Q9BRT3 (Q9BRT3 whole entry): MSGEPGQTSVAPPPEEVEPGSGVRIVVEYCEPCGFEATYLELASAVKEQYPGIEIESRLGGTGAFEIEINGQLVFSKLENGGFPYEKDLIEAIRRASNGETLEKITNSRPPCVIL
Chain of UniProt O95857 (O95857 whole entry): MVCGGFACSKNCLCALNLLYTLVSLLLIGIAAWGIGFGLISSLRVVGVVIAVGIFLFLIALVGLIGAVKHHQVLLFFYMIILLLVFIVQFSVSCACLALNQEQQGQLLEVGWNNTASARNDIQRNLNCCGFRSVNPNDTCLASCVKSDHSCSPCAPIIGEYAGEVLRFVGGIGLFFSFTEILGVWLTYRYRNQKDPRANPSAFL
Chain of UniProt Q92947 (Q92947 whole entry): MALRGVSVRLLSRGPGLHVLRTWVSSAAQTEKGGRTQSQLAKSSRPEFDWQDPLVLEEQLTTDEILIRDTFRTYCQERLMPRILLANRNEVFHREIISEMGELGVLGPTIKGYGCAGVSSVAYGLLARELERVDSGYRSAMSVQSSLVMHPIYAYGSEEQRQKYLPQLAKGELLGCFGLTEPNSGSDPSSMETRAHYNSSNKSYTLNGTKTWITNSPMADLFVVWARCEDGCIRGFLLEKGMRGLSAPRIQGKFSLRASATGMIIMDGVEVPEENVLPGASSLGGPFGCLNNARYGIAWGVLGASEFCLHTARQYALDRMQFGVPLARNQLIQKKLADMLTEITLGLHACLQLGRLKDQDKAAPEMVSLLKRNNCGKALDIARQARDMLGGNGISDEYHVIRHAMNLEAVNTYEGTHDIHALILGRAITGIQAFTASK
Chain of UniProt Q7Z7H5 (Q7Z7H5 whole entry): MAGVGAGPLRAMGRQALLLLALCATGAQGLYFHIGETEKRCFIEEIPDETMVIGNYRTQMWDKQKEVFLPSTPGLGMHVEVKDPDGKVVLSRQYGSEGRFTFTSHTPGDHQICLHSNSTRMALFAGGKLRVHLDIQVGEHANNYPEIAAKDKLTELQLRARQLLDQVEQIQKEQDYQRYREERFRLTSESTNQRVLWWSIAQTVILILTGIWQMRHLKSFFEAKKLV

Target	thermal stability z-score (lipoamide; [1])	thermal stability z-score (lipoamide; arsenate co-treatment: none)	thermal stability z-score (potassium arsenate)
PKP2 (UniProt Q99959)	0.0483	-0.112	-0.371
GSK3B (UniProt P49841)	-0.109	-0.308	0.326
EIF1AX (UniProt P47813)	-0.268	0.0406	0.464
HSPH1 (UniProt Q92598)	-0.0648	-0.0435	0.196
MARCH5 (UniProt Q9NX47)	0.842	-0.0503	0.411
CST3 (UniProt P01034)	-0.744	-0.0182	0.472
RPLP1 (UniProt P05386)	1.44	0.753	0.00244
OAS3 (UniProt Q9Y6K5)	-0.0852	0.257	-0.07
RALGAPB (UniProt Q86X10)	-0.0332	-0.00538	-0.112
ZNF609 (UniProt O15014)	0.0184	-0.0967	-0.0848
LDB1 (UniProt Q86U70)	0.244	1.15	-0.783
TMED4 (UniProt Q7Z7H5)	-0.192	-0.249	0.0343
DYNLL1 (UniProt P63167)	-0.627	-0.0429	0.163
LIG4 (UniProt P49917)	-0.146	0.0757	-0.107
HDGFRP2 (UniProt Q7Z4V5)	0.576	0.499	0.126
TSPAN13 (UniProt O95857)	0.229	0.441	-0.0847
NSMCE3 (UniProt Q96MG7)	-0.0975	-0.0424	0.119
RALA (UniProt P11233)	0.107	-0.0183	-0.459
ARCN1 (UniProt P48444)	0.128	-0.0303	0.383
MFSD4B (UniProt Q5TF39)	-0.227	0.265	-0.129
COX20 (UniProt Q5RI15)	-0.11	-0.155	-0.19
UBE3C (UniProt Q15386)	-0.19	0.18	0.79
FZD2 (UniProt Q14332)	-1.45	-1.01	0.0158
ACAA1 (UniProt P09110)	-0.181	0.335	0.919
FAM234B (UniProt A2RU67)	-0.257	-0.241	-0.192
MRPS6 (UniProt P82932)	-0.216	-0.13	-0.516
PARL (UniProt Q9H300)	-0.134	-0.733	0.57
BLVRB (UniProt P30043)	0.863	-0.0398	1.14

Target	thermal stability z-score (lipoamide; [1])	thermal stability z-score (lipoamide; arsenate co-treatment: none)	thermal stability z-score (potassium arsenate)
FRG1 (UniProt Q14331)	0.146	0.243	0.312
TXNDC17 (UniProt Q9BRA2)	0.493	0.408	0.728
NT5C2 (UniProt P49902)	0.892	-0.608	-0.0391
PRNP	0.0235	0.239	0.0499
APOOL (UniProt Q6UXV4)	0.908	0.782	0.748
TNFAIP3 (UniProt P21580)	-0.409	-0.303	-0.522
COMMD3 (UniProt Q9UBI1)	-0.911	-0.0897	-1.12
SMARCA5 (UniProt O60264)	0.76	1.44	-0.922
PHF6 (UniProt Q8IWS0)	-0.33	-0.552	-3.52
SBDS (UniProt Q9Y3A5)	0.328	0.706	0.306
POLR1C (UniProt O15160)	0.267	0.621	-1.08
GRB10 (UniProt Q13322)	-0.159	-0.12	-0.636
TMEM126B (UniProt Q8IUX1)	1.31	1.36	1.18
VPS52 (UniProt Q8N1B4)	-0.424	-0.105	-0.0774
AKAP2	1.28	0.638	-0.839
TYW3 (UniProt Q6IPR3)	-0.419	0.332	-0.177
ZC3H7B (UniProt Q9UGR2)	-0.082	-0.0985	-0.647
ATP5F1 (UniProt P24539)	-0.648	-0.133	0.226
PPIL4 (UniProt Q8WUA2)	-0.441	-0.236	-0.913
MIEN1 (UniProt Q9BRT3)	0.165	-0.595	0.969
CCBL1|KYAT1	0.0425	0.343	0.447
ASPH (UniProt Q12797)	-2.27	-2.04	0.014
CDKN2AIP (UniProt Q9NXV6)	0.446	0.454	-0.347
PPM1B (UniProt O75688)	0.109	0.277	0.179
GCDH (UniProt Q92947)	0.711	0.198	-0.202
UTP3 (UniProt Q9NQZ2)	0.145	0.194	0.203
UBE2A (UniProt P49459)	0.343	0.172	-0.0388
